Laboratory results: US10618890B2, “Benzimidazole sulfonamide derivatives as inverse agonists of retinoid-related orphan receptor gamma (ROR gamma (T))” (GALDERMA RESEARCH & DEVELOPMENT, priority 2014, dated 2020)
pIC50: −log10 of the molar value. Where two headings read alike, the source gives them in different places.

Tests used:
hRORg = biological target: T1, hRORg (Homo sapiens, UniProt P51449); test: GAL4-RORγ transactivation (luciferase reporter, HG5LN HeLa line); format: cell-based; conditions: HG5LN cells, 18 hours incubation, luciferase luminescence
T1 construct: expressed in transfected cells; host or cells: HG5LN (HeLa line with a GAL4-driven luciferase reporter)
T1 sequence (P51449 269-508 limits assumed): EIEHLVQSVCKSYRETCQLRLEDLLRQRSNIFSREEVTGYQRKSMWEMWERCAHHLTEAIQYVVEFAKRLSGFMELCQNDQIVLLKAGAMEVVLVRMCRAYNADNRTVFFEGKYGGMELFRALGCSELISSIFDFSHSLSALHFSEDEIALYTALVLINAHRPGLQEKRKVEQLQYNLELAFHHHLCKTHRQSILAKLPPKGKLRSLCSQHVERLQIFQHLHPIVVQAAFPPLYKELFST
Text: GAL4-RORγ Transactivation
The RORγ transactivation model was developed from the line HG5LN, which is a HeLa line that stably expresses a luciferase reporter gene controlled by a pentamer of the GAL4 recognition domain of yeast and of a β-globin promoter. The HG5LN line was stably transfected by the DNA-binding domain (DBD) of GAL4 fused to the ROR gamma ligand-binding domain (LBD). Molecules that inhibit the ROR gamma constitutive activity reduce the luciferase expression, thus leading to a reduction in the emitted luminescence.
The cells are seeded in 384-well plates (5000 cells in 45 μL/well of culture medium containing 10% fetal calf serum) and incubated for 4 hours at 37° C., 5% CO2. 5 μL of the test molecules (compounds described in the tables described above) are then added to each well and the plates are incubated for 18 hours at a temperature of 37° C. under 5% of CO2. 20 μL of luciferase substrate (Promega) are added to each well and the luminescence emitted is read by a microplate reader.
The luminescence units (“RLU”) are normalized by positive controls (“POS” containing a saturated concentration of N-(2,2,2-trifluoroethyl)-N-[4-[2,2,2-trifluoro-1-hydroxy-1-(trifluoromethyl)ethyl]phenyl]benzenesulfonamide) and negative controls (“NEG” containing DMSO): % inhibition=((RLU-NEG)*100)/(POS-NEG). The IC50 values are calculated from a 4-parameter logistic model using the XLFit software (IDBS).

[1] = tested on: IL-17A secretion by CD4+ cells; test: IL-17A secretion by CD4+ cells (HTRF); format: cell-based; conditions: human CD4+ cells activated with anti-CD3 and anti-CD28, 4 days of incubation, IL-17A by HTRF, read-out: IC50 hCD4/IL17
Experimental: This model allows measurement of the effect of inhibitors on IL-17A secretion by CD4+ cells. The cells are frozen CD4+ cells (STEMCELL, #70026), isolated from peripheral human blood and activated with anti-CD3 and anti-CD28 antibodies. The amount of IL-17A secreted is measured by the TR-FRET (kit HTRF® Human Interleukin 17A (Cisbio, #64H17PEC)) technology.
The cells are rapidly thawed, resuspended in their culture medium (RPMI inactivated 10% FCS) supplemented with soluble anti-CD28 antibodies and seeded (100 000 cells/well) in 96-well plates precoated with anti-CD3 antibodies. The cells are then treated with the ranges of inhibitors to be tested (from 1000 nM to 0.05 nM, 0.1% DMSO). After 4 days of incubation, the HTRF signal is measured using a microplate reader (excitation=337 nm, λemission=620/665 nm). The ratios obtained (665/620) are normalized relative to the positive control (cells activated with anti-CD3 and anti-CD28, 0.1% DMSO). The IC50 values are calculated from a 4-parameter logistic model using the XLFit software (IDBS).

Structure (SMILES)	pIC50 (hRORg)	pIC50 ([1]; Homo sapiens, 96 h)	pIC50 [1]
CCc1ccc(N(CC(C)C)S(=O)(=O)c2ccc3c(c2)n(CC2CCOCC2)c(=O)n3C)cc1 [Compound 1, 1-methyl-2-oxo-3-(tetrahydropyran-4-ylmethyl)-2,3-dihydro-1H-benzimidazole-5-sulfonic acid (4-ethylphenyl)isobutylamide]	< 6.00		
CCc1ccc(N(CC(C)C)S(=O)(=O)c2ccc3c(c2)[nH]c(=O)n3CC2CCOCC2)cc1 [Compound 2, 2-oxo-1-(tetrahydropyran-4-ylmethyl)-2,3-dihydro-1H-benzimidazole-5-sulfonic acid (4-ethylphenyl)isobutylamide]	> 7.00	> 7.00	
CCc1ccc(N(CC(C)C)S(=O)(=O)c2ccc3[nH]c(=O)n(CC4CCOCC4)c3c2)cc1 [Compound 3, 2-oxo-3-(tetrahydropyran-4-ylmethyl)-2,3-dihydro-1H-benzimidazole-5-sulfonic acid (4-ethylphenyl)isobutylamide]	6.00 to 7.00	> 7.00	
CCc1ccc(N(CC(C)C)S(=O)(=O)c2ccc3c(c2)[nH]c(=O)n3CC2(C)CCOCC2)cc1 [Compound 4, 1-(4-methyltetrahydropyran-4-ylmethyl)-2-oxo-2,3-dihydro-1H-benzimidazole-5-sulfonic acid (4-ethylphenyl)isobutylamide]	> 7.00	> 7.00	
CCc1ccc(N(CC(C)C)S(=O)(=O)c2ccc3c(c2)[nH]c(=O)n3CC2(F)CCOCC2)cc1 [Compound 5, 1-(4-fluorotetrahydropyran-4-ylmethyl)-2-oxo-2,3-dihydro-1H-benzimidazole-5-sulfonic acid (4-ethylphenyl)isobutylamide]	> 7.00	> 7.00	
CCc1ccc(N(CC(C)C)S(=O)(=O)c2ccc3c(c2)[nH]c(=O)n3C[C@H]2[C@@H]3COC[C@@H]32)cc1 [Compound 6, 1-[(1R,5S,6S)-1-(3-oxabicyclo[3.1.0]hex-6-yl)methyl]-2-oxo-2,3-dihydro-1H-benzimidazole-5-sulfonic acid (4-ethylphenyl)isobutylamide]	> 7.00		
CCc1ccc(N(CC(C)C)S(=O)(=O)c2ccc3c(c2)[nH]c(=O)n3CC2COC2)cc1 [Compound 7, 1-oxetan-3-ylmethyl-2-oxo-2,3-dihydro-1H-benzimidazole-5-sulfonic acid (4-ethylphenyl)isobutylamide]	> 7.00	> 7.00	
CCc1ccc(N(CC(C)C)S(=O)(=O)c2ccc3c(c2)[nH]c(=O)n3CC2COC(=O)O2)cc1 (stereo not shown) [Compound 8, 2-oxo-1-(2-oxo[1,3]dioxolan-4-ylmethyl)-2,3-dihydro-1H-benzimidazole-5-sulfonic acid (4-ethylphenyl)isobutylamide]	> 7.00		
CCc1ccc(N(CC(C)C)S(=O)(=O)c2ccc3c(c2)[nH]c(=O)n3CC2CNC(=O)O2)cc1 (stereo not shown) [Compound 9, 2-oxo-1-(2-oxooxazolidin-5-ylmethyl)-2,3-dihydro-1H-benzimidazole-5-sulfonic acid (4-ethylphenyl)isobutylamide]	< 6.00		
CCc1ccc(N(CC(C)C)S(=O)(=O)c2ccc3c(c2)[nH]c(=O)n3Cc2ccncc2)cc1 [Compound 10, 2-oxo-1-pyridin-4-ylmethyl-2,3-dihydro-1H-benzimidazole-5-sulfonic acid (4-ethylphenyl)isobutylamide]	6.00 to 7.00	> 7.00	
CCc1ccc(N(CC(C)C)S(=O)(=O)c2ccc3c(c2)[nH]c(=O)n3C2CCOCC2)cc1 [Compound 11, 2-oxo-1-(tetrahydropyran-4-yl)-2,3-dihydro-1H-benzimidazole-5-sulfonic acid (4-ethylphenyl)isobutylamide]	< 6.00		
CCc1ccc(N(CC(C)C)S(=O)(=O)c2ccc3c(c2)[nH]c(=O)n3C2CCN(C(=O)OC(C)(C)C)CC2)cc1 [Compound 12, tert butyl ester of 4-{5-[(4-ethylphenyl)isobutylsulfamoyl]-2-oxo-2,3-dihydrobenzimidazol-1-yl}piperidine-1-carboxylic acid]	< 6.00		
CCc1ccc(N(CC(C)C)S(=O)(=O)c2ccc3c(c2)[nH]c(=O)n3C2CCNCC2)cc1 [Compound 13, 2-oxo-1-piperidin-4-yl-2,3-dihydro-1H-benzimidazole-5-sulfonic acid (4-ethylphenyl)isobutylamide]	< 6.00		
CCc1ccc(N(CC(C)C)S(=O)(=O)c2ccc3c(c2)[nH]c(=O)n3C2CCN(S(C)(=O)=O)CC2)cc1 [Compound 14, 1-(1-methanesulfonylpiperidin-4-yl)-2-oxo-2,3-dihydro-1H-benzimidazole-5-sulfonic acid (4-ethylphenyl)isobutylamide]	< 6.00		
CCc1ccc(N(C2CCCC2)S(=O)(=O)c2ccc3c(c2)[nH]c(=O)n3CC2CCOCC2)cc1 [Compound 15, 2-oxo-1-(tetrahydropyran-4-ylmethyl)-2,3-dihydro-1H-benzimidazole-5-sulfonic acid (4-ethylphenyl)cyclopentylamide]	> 7.00	> 7.00	
CCc1ccc(N(C(CC)CC)S(=O)(=O)c2ccc3c(c2)[nH]c(=O)n3CC2CCOCC2)cc1 [Compound 16, 2-oxo-1-(tetrahydropyran-4-ylmethyl)-2,3-dihydro-1H-benzimidazole-5-sulfonic acid (4-ethylphenyl)(1-ethylpropyl)amide]	> 7.00	> 7.00	
Cc1ccc(N(CC(C)C)S(=O)(=O)c2ccc3c(c2)[nH]c(=O)n3CC2CCOCC2)c(C)c1 [Compound 17, 2-oxo-1-(tetrahydropyran-4-ylmethyl)-2,3-dihydro-1H-benzimidazole-5-sulfonic acid (2,4-dimethylphenyl)isobutylamide]	> 7.00	> 7.00	
Cc1ccc(N(C2CCCC2)S(=O)(=O)c2ccc3c(c2)[nH]c(=O)n3CC2CCOCC2)c(C)c1 [Compound 18, 2-oxo-1-(tetrahydropyran-4-ylmethyl)-2,3-dihydro-1H-benzimidazole-5-sulfonic acid cyclopentyl(2,4-dimethylphenyl)amide]	> 7.00	> 7.00	
CCC(CC)N(c1ccc(C)cc1C)S(=O)(=O)c1ccc2c(c1)[nH]c(=O)n2CC1CCOCC1 [Compound 19, 2-oxo-1-(tetrahydropyran-4-ylmethyl)-2,3-dihydro-1H-benzimidazole-5-sulfonic acid (2,4-dimethylphenyl)(1-ethylpropyl)amide]	> 7.00	> 7.00	
CCc1ccc(N(CC(C)C)S(=O)(=O)c2ccc3c(c2)[nH]c(=O)n3CC2CCS(=O)(=O)CC2)cc1 [Compound 20, 1-(1,1-dioxohexahydro-1λ^6-thiopyran-4-ylmethyl)-2-oxo-2,3-dihydro-1H-benzimidazole-5-sulfonic acid (4-ethylphenyl)isobutylamide]	> 7.00	> 7.00	
CCc1ccc(N(CC(C)C)S(=O)(=O)c2ccc3[nH]c(=O)n(CC4CCOCC4)c3c2)cc1 [Compound 21, 2-oxo-3-(tetrahydropyran-4-ylmethyl)-2,3-dihydro-1H-benzimidazole-5-sulfonic acid (4-ethylphenyl)isobutylamide]	6.00 to 7.00		6.00 to 7.00
